Assays:
[1] = tested on: C. elegans wild type Bristol N2; test: Stress-resistance assay (Juglone) in C. elegans; format: in vivo, Caenorhabditis elegans; settings: pretreatment 10 μM for 3 days, then Juglone 250 μM for 2.5, 3.5 and 4.5 h
Method: The wild type Bristol N2 strain was used in this study. C. elegans and Escherichia coli OP50 strain were obtained from the Caenorhabditis Genetic Center, University of Minnesota (Minneapolis-St. Paul, MN). Worms were maintained at 20°C on nematode growth medium (NGM). Hatched worms (L1-stage larvae) were transferred to fresh agar plates and cultured with E. coli OP50 as a food source until they reached the L4 larvae stage. Synchronization of worm cultures was achieved by hypochlorite treatment of gravid hermaphrodites.
Age synchronized L1 larvae were incubated with liquid S-basal medium containing E. coli OP50 at a density of 1 × 10^9 cells. Ml and 10 and 20 μM ANM or 0.01% DMSO (vehicle control) for 3 days. Subsequently, adult worms were subjected to oxidative stress assay. To induce oxidative stress, worms were incubated with Juglone (5-hydroxyl-1,4-naphthoquinone; Sigma), an ROS-generating agent. ANM treated and control worms were transferred to S-basal medium containing 250 μM Juglone, and incubated from 2.5, 3.5 and 4.5 h. After treatment, viable worms were scored. […] The test was performed triplicate.

[2] = Cell-free DPPH free-radical scavenging assay
Method: Therefore, next to determine whether ANM acts directly as a free-radical scavenger, we performed a cell-free DPPH free-radical scavenging assay.
Figure 5 Antcin M activates Nrf2-dependent anti-oxidant defense in HNDFs A. To determine the free-radical scavenging effect of ANM, cell-free DPPH assay was performed. […] Results expressed as mean ± S.E.M of three indipendent expriments.

[3] = tested on: p16INK4A, p21CIP1 and SMP30; test: Western blot of senescence-associated marker proteins in HG-induced HNDFs; format: cell-based, human; settings: 10 μM with HG (30 mM) for 72 h, immunoblotting
Method: Cells were lysed by either RIPA lysis buffer or nuclear and cytoplasmic extraction reagents (Thermo Fisher Scientific). Protein concentrations were determined by Bio-Rad protein assay reagent (Bio-Rad Laboratories, Hercules, CA). Equal amounts of protein samples (60 μg) were separated by 7-12% SDS-PAGE and the separated proteins were transferred onto polyvinylidene […] (PVDC) membrane overnight. The transferred protein membranes were blocked with 5% non-fat dried milk for 30 min, followed by incubation with specific primary antibodies overnight, and either horseradish peroxidase-conjugated goat anti-rabbit or anti-mouse antibodies for 2 h. The blots were detected using VL Chemi-Smart 3000 (Viogene Biotek, Sunnyvale, CA) with the enhanced chemiluminescence (ECL) western blotting reagent (Millipore, Billerica, MA).

HO-1 and NQO-1 mRNA = test: Q-PCR of anti-oxidant genes in HNDFs; format: cell-based, human; settings: ANM 10 μM, 12 h
Method: (§1) Total RNA was extracted from cultured HNDFs using Trizol Reagent (Thermo Fisher Scientific). Q-PCR analysis was performed using Applied Biosystems detection instruments and software. Forward and reverse primers (10 μM), and the working solution SYBR green, was used as a PCR master mix, under the following conditions: 96°C for 3 minutes followed by 40 cycles at 96°C for 1 minute, 50°C for 30 seconds and 72°C for 90 seconds. GAPDH was used as an internal standard to control for variability in amplification because of differences in starting mRNA concentrations. The copy number of each transcript was calculated as the relative copy number normalized by GAPDH copy number.

[4] = tested on: Nrf2 transcriptional activity (ARE promoter); test: ARE luciferase reporter assay in HNDFs; format: cell-based, human; settings: 6 h
Method: ARE promoter activity was measured using a dual-luciferase reporter assay system (Promega, Madison, WI). […] Cells were then transfected with ARE plasmid (Qiagen, Hilden, Germany) using Lipofectamine 2000 (Invitrogen) and incubated for 36 h. […] The cell lysate was prepared and incubated with luciferase agents and the relative luminescence intensity was quantified using a spectrophotometer (Hidex Oy, Turku, Finland).

[5] = tested on: SIRT-1, SIRT-3 and SIRT-6 mRNA; test: Q-PCR of SIRT genes in HNDFs; format: cell-based, human; settings: ANM 10 μM, 72 h
Method: as §1

HNDFs [6] = test: Cell-cycle analysis by flow cytometry (PI) in HG-induced HNDFs; format: cell-based, human; settings: ANM 10 μM with HG (30 mM) for 72 h; HG 71.2%, NG 46.5%
Method: HNDFs at a density of 5 × 10^5 cells in 10 cm dishes were treated with ANM or NAC in the presence or absence of HG for 72 h. Cells were collected, washed with PBS and fixed in 95% cold-ethanol, and kept at −20°C overnight. The cell pellet was then washed again with PBS and centrifuged at 1500 × g for 5 min. The pellet was re-suspended in 1 mL PI/Triton X-100 (20 μg/mL PI, 0.1% Triton X-100 and 0.2 mg/mL RNAse) and incubated on ice for 30 min. The total cellular DNA content was analyzed with a flow cytometer (Beckman Coulter FC500). Data were acquired and analyzed using CXP software (Beckman Coulter).

HNDFs [7] = test: Cell proliferation, trypan blue exclusion assay in HG-induced HNDFs; format: cell-based, human; settings: with HG (30 mM) for 72 h (Figure 2D)
Method: Cell proliferation was evaluated using trypan blue exclusion assay as described previously with minor modification. Cells were plated into 6-well plates at a density of 5 × 10^4 cells/well. After incubation overnight, cells were treated with test samples in the presence or absence of HG for 24-72 h. Cells exposed to 0.2% Trypan blue were then counted in a hemocytometer, and cells stained with Trypan blue were excluded. Percentage of viable cells was calculated based on the ratio of viable cells to total cell population in each well. The proliferation rate was calculated based on the number of viable cells in HG or sample-treated groups versus the NG-treated group.

HUVECs = test: Intracellular ROS by DCF fluorescence assay in HUVECs; format: cell-based, human; settings: ANM 10 μM with HG (30 mM) for 48 h; HG alone 14.3-fold
Method: Cell viability was dermined by MTT assay. Percentage of viable cells were normalized with control cells (NG). B. Cellular senescence was determined by SA-β-gal activity assay as descrided in Materials and Methods. C., D. Total cell lysate was extracted and senescence-associated marker proteins including p16INK4A, p21CIP1, total and acetylated p53 and FoxO1 were measured by western blot analysis. E. Protein expression levels of SIRT-1 and phos-SIRT-1 were monitored by immunoblotting. […] The intracellular ROS level was quantified by utilizing DCFH-DA assay. G. Western blot analysis was performed to determine the protein expression levels of HO-1 and NQO-1. […] Cell lysates were mixed with luciferase reagents and quantified using an illuminometer. Relative ARE promoter activity was calculated by dividing the relative luciferace unit (RLU) of treated cells by RLU of untraeated cells (NG). Results expressed as mean ± SEM of three indipendent expriments. Statistical significance at ^ФP < 0.05 compared to NG vs. HG and *P < 0.05 compared to HG vs. samples.

C=C(CCC(C)C1CCC2C3=C(C(=O)C(O)C21C)C1(C)CCC(O)C(C)C1CC3)C(C)C(=O)O (centres unmarked) [ANM, antcin M]
survival rate of worms exposed to oxidative stress [1]: significantly increased the survival rate | free-radical scavenging in the cell-free system [2]: failed to scavenge free radicals | HG-induced upregulation of p16INK4A and p21CIP1 proteins [3]: significantly downregulated | SMP30 protein expression [3]: rescued HG-induced SMP30 depletion | mRNA levels of HO-1 and NQO-1 (HO-1 and NQO-1 mRNA): significantly increased | ARE luciferase activity ([4]; ANM 10 μM or NAC 100 μM alone, control 1-fold): 5.8 fold | ARE luciferase activity ([4]; co-treated with HG (30 mM), ANM 10 μM or NAC 100 μM, HG alone 2.5-fold): 8.5 fold | SIRT-1, SIRT-3 and SIRT-6 levels compared to the control group [5]: significantly increased | cell population in the G0/G1 phase (HNDFs [6]): 49.5% | cell proliferation compared to the HG treatment group (HNDFs [7]): two-fold increase | intracellular ROS levels (HUVECs): 6.1 fold
